Reference: article PMC8218751, “Visualizing Borrelia burgdorferi Infection Using a Small-Molecule Imaging Probe” (Journal of Clinical Microbiology, 2021)
Entries after “also recorded” stand apart in the source; their conditions may differ.

Columns and labels:
T. denticola HtpG = T. denticola HtpG (Treponema denticola, UniProt P61188); assay: FLECS assay, elution of GFP-HtpG from ATP Sepharose; format: binding; conditions: in words
Procedure: Escherichia coli (strain BL21/DE3) genomic DNA was isolated from a lab culture generated from the cloning/expression bacterium (ThermoFisher catalog no. EC0114) by overnight proteinase K digestion at 56°C, high-salt clarification, and ethanol precipitation. B. burgdorferi (strain B31) and Treponema denticola genomic DNAs were obtained from the American Type Culture Collection (Manassas, VA; ATCC 35210 and 35405, respectively). Human Hsp90-alpha sequences were derived from cDNA generated from total mRNA of the human breast epithelial line, MCF10A. HtpG DNA sequences were PCR cloned from these DNAs using primers designed to allow in-frame cloning with GFP in the isopropyl-β-D-thiogalactopyranoside (IPTG)-inducible bacterial expression vector. 1GFP (pET His6 GFP TEV [tobacco etch virus] LIC [ligation-independent cloning] vector) was a gift from Scott Gradia (Addgene plasmid #29663; http://n2t.net/addgene:29663; RRID:Addgene_29663). Fusion protein cloning was done using the ligation-independent cloning procedure via single-nucleotide T4 DNA polymerase treatment of vector and purified PCR products followed by annealing of complementary single-strand ends before transformation into DH5 E. coli. Proper fusion junctions and fidelity of cloned inserts were confirmed by sequencing, and then the plasmid was transformed into E. coli BL21(DE3) for protein expression. Fusion protein synthesis was induced by incubation with 1 mM IPTG or autoinduction ([17]). Production of GFP-HtpG/Hsp90 was confirmed by identification of GFP and HtpG peptides with matrix-assisted laser desorption ionization (MALDI) using an AB Sciex 5800 time of flight (TOF)/TOF mass spectrometer in the induced band identified on an SDS-PAGE gel. To complete binding curves, several liters of induced cultures was generated, pelleted with centrifugation of 3,150 × g for 15 min, flash frozen in liquid nitrogen, and then stored at −80°C until subsequent fluorescent-linked enzyme chemoproteomic strategy (FLECS) analysis.
γ-linked ATP Sepharose matrix was generated as described previously by the Haystead lab ([18]). BL21 bacterial pellets expressing GFP-fusion proteins of E. coli, B. burgdorferi, and T. denticola HtpGs and human Hsp90 were lysed with B-PER complete bacterial protein extraction reagent (Thermo Scientific catalog number 89821) and centrifuged at 96,000 relative centrifugal force (RCF) (Beckman Coulter type 45 Ti fixed-angle rotor) to pellet insoluble BL21 material. The clarified lysate was added to a column containing ATP-bound Sepharose. The column was washed with low-salt buffer (150 mM NaCl, 25 mM HEPES, pH 7.4, 1 mM dithiothreitol [DTT], and 60 mM MgCl2), followed by high-salt buffer (1 M NaCl, 25 mM HEPES, pH 7.4, 1 mM DTT, 0.1% IGEPAL, and 60 mM MgCl2) and once again low-salt buffer to remove unbound protein. Next, the resin with bound proteins (50 μl) was transferred to a 0.2-μm polyvinylidene fluoride filter 96-well plate (Corning) sitting on top of a black flat-bottomed 96-well catch plate (Corning). Small molecules or ATP was added to each well (50 μl), and the plates were centrifuged using an Eppendorf 5810 centrifuge at 1,100 rpm (220 RCF) for 1 min. The eluted proteins were measured in a fluorescent plate reader to detect the GFP. Some compounds are autofluorescent, and so to confirm fusion protein elution, samples were analyzed by classic SDS-PAGE methods followed by silver staining and MALDI mass spectrometry using a AB Sciex 5800 TOF/TOF mass spectrometer.
Subtle single amino acid differences are present within the catalytic clefts of these proteins, especially between residues that contact the nucleotide. […] We therefore reasoned that these differences may be sufficient to design small molecules that can similarly discriminate HtpG of stealth organisms. To test this hypothesis, we utilized a fluorescent-linked enzyme chemoproteomic strategy (FLECS) assay to test known Hsp90 inhibitors ([18]) for binding to various HtpG constructs. […]

B. burgdorferi = B. burgdorferi live bacterial imaging; format: cell-based, Borrelia burgdorferi
Procedure: B. burgdorferi strain B31 was obtained from ATCC (ATCC catalog number ATCC-35210). Cultures were grown in Barbour-Stoenner-Kelly medium (BSK-II) created using the Barbour protocol ([19]) without gelatin and supplemented with 6 % rabbit serum (Pel-Freez catalog number 31128-5) at 34°C. Low-passage-number cultures (less than 4) were utilized. Later-stage morphological variants were obtained by increasing culture time to approximately 8 days to achieve a density of ∼10^8/ml counted under dark-field microscopy.
[…] germ agglutinin (WGA) conjugated with Alexa 488 at 10 μg per ml (Biotium catalog number 29022), and cells were then washed with fresh medium and mounted with Prolong Gold with 4′,6-diamidino-2-phenylindole (DAPI). Samples were imaged on a Zeiss Axio Imager upright microscope, using 63× oil objective, and visible light for differential […] contrast (DIC) imaging and excitation at 405, 488, or 633 nm for detection of DAPI, fluorescein isothiocyanate (FITC), or HS-198, respectively.

Chain of T. denticola HtpG (P61188 whole entry): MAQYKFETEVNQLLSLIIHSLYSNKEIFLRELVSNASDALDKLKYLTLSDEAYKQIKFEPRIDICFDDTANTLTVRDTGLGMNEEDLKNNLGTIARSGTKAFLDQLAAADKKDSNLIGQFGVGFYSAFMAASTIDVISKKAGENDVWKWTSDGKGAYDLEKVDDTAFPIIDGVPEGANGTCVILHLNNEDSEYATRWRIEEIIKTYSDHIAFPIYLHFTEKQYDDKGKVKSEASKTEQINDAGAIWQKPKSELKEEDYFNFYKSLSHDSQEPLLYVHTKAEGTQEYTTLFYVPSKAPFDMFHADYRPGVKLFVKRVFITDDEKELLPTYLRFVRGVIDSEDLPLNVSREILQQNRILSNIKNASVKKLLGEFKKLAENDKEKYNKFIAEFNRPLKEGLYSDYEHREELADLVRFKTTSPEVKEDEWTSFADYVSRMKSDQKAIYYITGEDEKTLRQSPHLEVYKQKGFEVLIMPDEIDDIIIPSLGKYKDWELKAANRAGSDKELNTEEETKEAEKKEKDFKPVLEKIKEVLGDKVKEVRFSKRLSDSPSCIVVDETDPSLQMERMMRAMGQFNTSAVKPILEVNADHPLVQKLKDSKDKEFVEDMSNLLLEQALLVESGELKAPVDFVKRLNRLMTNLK

With Cc1nn(-c2ccc(C(=O)N(C)C)c(NCCCOCCOCCOCCOCCOCCCNCc3ccc(C(=C\C=C4/N(CCCCS(=O)(=O)O)c5ccccc5C4(C)C)/C=C/C4=[N+](CCCCS(=O)(=O)[O-])c5ccccc5C4(C)C)cc3)c2)c2c1C(=O)CC(C)(C)C2 [HS-198] the “Release of T. denticola HtpG from immobilized ATP resin” value (T. denticola HtpG) was “unable to release; also recorded: inactive”, the “Uptake, share of B. burgdorferi spirochetes” value (B. burgdorferi; 10 μM, incubated 1 h) was greater than 90% and the “Accumulation in B. burgdorferi morphological states” value (B. burgdorferi; 10 μM, spirochetes, blebs, aggregates, colocalization with DAPI) was “accumulates in B. burgdorferi in all of its morphological states”. For the same compound, the “Effect on B. burgdorferi morphology or motility” value (B. burgdorferi; overnight incubation, live B. burgdorferi) was “does not appear to affect”.
